From patent US20230203060A1 (GENFLEET THERAPEUTICS (SHANGHAI) INC., priority 2020, published 2023)

Key:
[1] = test system: phosphorylated ERK downstream of KRAS G12C in MIA PaCa2 cells; test: Cell p-ERK detection experiment (HTRF) in MIA PaCa2; format: cell-based, human; conditions: Homo sapiens, MIA PaCa-2, 2 h, MIA PaCa2 cells, 2 hours with compound, Advance ERK phospho-T202/Y204 HTRF kit; read-out: p-ERK IC50
In short: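 KRAS G12C-mutant MIA PaCa2 cells (2.5E4 per well, overnight) exposed 2 h to a 3.16-fold compound dilution series at 0.1% DMSO. Lysates probed 4 h with HTRF antibodies to ERK phospho-T202/Y204; inhibition versus DMSO control and blank, IC50 by four-parameter fit.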

KRAS G12C = molecular target: T1, KRAS G12C (Homo sapiens, UniProt P01116, G12C); test: KRAS G12C NEA-HTRF experiment (SOS1-catalyzed displacement of GDP by GTP); format: biochemical
T1 construct: purchased Reactionbiology
T1 sequence (P01116 1-188 isoform P01116-2 G12C): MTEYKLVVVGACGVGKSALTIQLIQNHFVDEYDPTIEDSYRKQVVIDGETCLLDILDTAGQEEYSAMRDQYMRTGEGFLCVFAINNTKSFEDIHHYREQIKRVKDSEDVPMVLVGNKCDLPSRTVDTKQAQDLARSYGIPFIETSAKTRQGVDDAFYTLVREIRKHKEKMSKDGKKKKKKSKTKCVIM
In short: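 His-tagged KRAS G12C preloaded with DY647-GDP was preincubated 15 min at 20 °C with compound, then exchanged with SOS1 (0.2 μM working solution) and GTP (200 μM working solution) for 2 h at 20 °C in the dark. HTRF 665/615 nm ratio with anti-His-Tb was normalised to T0 and no-compound controls; IC50 by four-parameter fit.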

Structure (SMILES) | IC50 [1] [µM] | IC50 (KRAS G12C) [µM]
C=CC(=O)N1CCN2C(=O)c3c(N4CCN(C)C[C@@H]4C)nc(-c4c(F)cccc4OC)c(F)c3OC[C@H]2C1 [Z451, (6aR)-8-acryloyl-1-((S)-2,4-dimethylpiperazin-1-yl)-4-fluoro-3-(2-fluoro-6-methoxyphenyl)-6,6 a,7,8,9,10-hexahydro-12H-pyrazino[2,1-c]pyrido[3,4-f][1,4]oxazepin-12 (6 aH)-one] | 1.48 | 3
C=CC(=O)N1CCN2C(=O)c3c(N4CCN(C)[C@@H](C)[C@@H]4C)nc(-c4ccccc4F)c(Cl)c3OC[C@H]2C1 [Z653, (R)-8-acryloyl-4-chloro-3-(2-fluorophenyl)-1-((2S,3S)-2,3,4-trimethylpiperazin-1-yl)-6,6a,7,8,9,10-hexahydro-12H-pyrazino[2,1-c]pyrido[3,4-f][1,4]oxazepin-12 (6aH)-one] | 0.184 | 0.298
C=CC(=O)N1CCN2C(=O)c3c(N4C[C@H](N5CCC5)CC4(C)C)nc(-c4ccccc4F)c(Cl)c3OC[C@H]2C1 (single isomer, unassigned) [Z471-2] | 1.08 | 0.461
C=CC(=O)N1CCN2C(=O)c3c(N4CCC[C@@]4(C)C(=O)NC)nc(-c4c(O)cccc4F)c(Cl)c3OC[C@H]2C1 [Z462, (2S)-1-((6aR)-8-acryloyl-4-chloro-3-(2-fluoro-6-hydroxyphenyl)-12-oxo-6,6a,7,8,9,10-hexahydro-12H-pyrazino[2,1-c]pyrido[3,4-f][1,4]oxazepin-1-yl)-N,2-dimethylpyrrolidine-2-carboxamide] | 0.165 | 0.131
C=CC(=O)N1CCN2C(=O)c3c(N4C[C@@H](NC)CC4(C)C)nc(-c4ccccc4F)c(Cl)c3OC[C@H]2C1 (single isomer, unassigned) [Z661-1] | 0.057 | 0.0335
C=CC(=O)N1CCN2C(=O)c3c(NC(C)(C)C)nc(-c4ccccc4F)c(Cl)c3OC[C@H]2C1 [Z457, (R)-8-acryloyl-1-(tert-butylamino)-4-chloro-3-(2-fluorophenyl)-6,6a,7,8,9,10-hexahydro-12H-pyrazino[2,1-c]pyrido[3,4-f][1,4]oxazepin-12-one] | 0.397 | 0.133
C=CC(=O)N1CCN2C(=O)c3c(N4C[C@@H](N5CCN(C)CC5)CC4(C)C)nc(-c4ccccc4F)c(Cl)c3OC[C@H]2C1 (single isomer, unassigned) [Z454-1] | 0.013 | 0.0093
C=CC(=O)N1CCN2C(=O)c3c(N4CCOC(C)(C)C4)nc(-c4c(O)cccc4F)c(Cl)c3OC[C@H]2C1 [Z37, (6aR)-8-acryloyl-4-chloro-1-(2,2-dimethylmorpholino)-3-(2-fluoro-6-hydroxyphenyl)-6,6a,7,8,9,10-hexahydro-12H-pyrazino[2,1-c]pyrido[3,4-f][1,4]oxazepin-12-one] | 0.145 | 0.167
C=CC(=O)N1CCN2C(=O)c3c(N4C[C@@H](N5CCN(C)CC5)CC4(C)C)nc(-c4c(O)cccc4F)c(Cl)c3OC[C@H]2C1 (single isomer, unassigned) [Z469-1] | 0.008 | 0.005
C=CC(=O)N1CCN2C(=O)c3c(N4CCN(C)C[C@@H]4C)nc(-c4c(F)cccc4C(F)F)c(Cl)c3OC[C@H]2C1 [Z456, (6aR)-8-acryloyl-4-chloro-3-(2-(difluoromethyl)-6-fluorophenyl)-1-((S)-2,4-dimethylpiperazin-1-yl)-6,6a,7,8,9,10-hexahydro-12H-pyrazino[2,1-c]pyrido[3,4-f][1,4]oxazepin-12-one] | 0.077 | 0.147
C=CC(=O)N1CCN2C(=O)c3c(N4C[C@H](N5CC(C#N)C5)CC4(C)C)nc(-c4ccccc4F)c(Cl)c3OC[C@H]2C1 (single isomer, unassigned) [Z637-1] | 1.12 | 0.343
C=CC(=O)N1CCN2C(=O)c3c(N4C[C@@H](N(C)C)CC4(C)C)nc(-c4c(F)ccc(F)c4O)c(Cl)c3OC[C@H]2C1 [Z475-1, (6aR)-8-acryloyl-4-chloro-3-(3,6-difluoro-2-hydroxyphenyl)-1-((S)-4-(dimethylamino)-2,2-dimethylpyrrolidin-1-yl)-6,6a,7,8,9,10-hexahydro-12H-pyrazino[2,1-c]pyrido[3,4-f][1,4]oxazepin-12-one] | 0.035 | 0.0225
C=CC(=O)N1CCN2C(=O)c3c(N4CCOC[C@@H]4C)nc(-c4c(O)cccc4F)c(Cl)c3OC[C@H]2C1 [Z32] | 0.08 | 0.142
C=CC(=O)N1CCN2C(=O)c3c(N4C[C@H](N(C)C)CC4(C)C)nc(-c4c(F)ccc(F)c4O)c(Cl)c3OC[C@H]2C1 (single isomer, unassigned) [Z475-2] | 0.107 | 0.0793
C=CC(=O)N1CCN2C(=O)c3c(N4C[C@@H](N(C)C)CC4(C)C)nc(-c4ccccc4)c(Cl)c3OC[C@H]2C1 (single isomer, unassigned) [Z655-1] | 0.461 | 0.406
C=CC(=O)N1CCN2C(=O)c3c(N4C[C@@H](N(C)CCO)CC4(C)C)nc(-c4ccccc4F)c(Cl)c3OC[C@H]2C1 (single isomer, unassigned) [Z658-1] | 0.031 | 0.0238
C=CC(=O)N1CCN2C(=O)c3c(N4C[C@H](N(C)C)CC4(C)C)nc(-c4cccc(C)c4F)c(Cl)c3OC[C@H]2C1 (single isomer, unassigned) [Z472-2] | 0.108 | 0.06
C=CC(=O)N1CCN2C(=O)c3c(N4C[C@H](N(C)CC(F)(F)F)CC4(C)C)nc(-c4ccccc4F)c(Cl)c3OC[C@H]2C1 (single isomer, unassigned) [Z493] | 0.433 | 0.125
C=CC(=O)N1CCN2C(=O)c3c(N4CCN(C)C[C@@H]4C)nc(-c4c(O)cccc4Cl)c(Cl)c3OC[C@H]2C1 [Z452, (6aR)-8-acryloyl-4-chloro-3-(2-chloro-6-hydroxyphenyl)-1-((S)-2,4-dimethylpiperazin-1-yl)-6,6a,7,8,9,10-hexahydro-12H-pyrazino[2,1-c]pyrido[3,4-f][1,4]oxazepin-12-one] | 0.034 | 0.0469
C=CC(=O)N1CCN2C(=O)c3c(N4CC(C(=O)O)CC4(C)C)nc(-c4c(O)cccc4F)c(Cl)c3OC[C@H]2C1 (stereo partly drawn) [Z458, 1-((6aR)-8-acryloyl-4-chloro-3-(2-fluoro-6-hydroxyphenyl)-12-oxo-6,6a,7,8,9,10-hexahydro-12H-pyrazino[2,1-c]pyrido[3,4-f][1,4]oxazepin-1-yl)-5,5-dimethylpyrrolidine-3-carboxylic acid] | 6.52 | 0.0139
C=CC(=O)N1CCN2C(=O)c3c(N4C[C@@H](N(C)C)CC4(C)C)nc(-c4ccccc4F)c(Cl)c3OC[C@H]2C1 [Z453-1, (R)-8-acryloyl-4-chloro-1-((S)-4-(dimethylamino)-2,2-dimethylpyrrolidin-1-yl)-3-(2-fluorophenyl)-6,6a,7,8,9,10-hexahydro-12H-pyrazino[2,1-c]pyrido[3,4-f][1,4]oxazepin-12-one] | 0.116 | 0.0436
C=CC(=O)N1CCN2C(=O)c3c(N4CC(N5CCC(F)(F)C5)CC4(C)C)nc(-c4ccccc4F)c(Cl)c3OC[C@H]2C1 (stereo partly drawn) [Z532, (6aR)-8-acryloyl-4-chloro-1-(3,3-difluoro-5′,5′-dimethyl-[1,3′-bipyrrolidin]-1′-yl)-3-(2-fluorophenyl)-6,6a,7,8,9,10-hexahydro-12H-pyrazino[2,1-c]pyrido[3,4-f][1,4]oxazepin-12-one] | 0.085 | 0.044
C=CC(=O)N1CCN2C(=O)c3c(N4C[C@H](N5CCN(C)CC5)C[C@@H]4C)nc(-c4ccccc4F)c(Cl)c3OC[C@H]2C1 [Z470-1] | 0.255 | 0.258
